Results from patent US12466818B2, “Thienyl-aniline compounds for treatment of dermal disorders” (NFlection Therapeutics, Inc., priority 2018, dated 2025).

What was measured:
MEK1 = MEK1 (Homo sapiens (Human), UniProt Q02750); assay: MEK Inhibition Assay-2 (Z'-LYTE biochemical assay); conditions: Z'-LYTE assay of Example 37; read-out: IC50 against MEK1
Procedure: MEK1 inhibitory activity of compounds were tested using the following procedure (protocol available at thermofisher.com/content/dam/LifeTech/migration/files/drug-discovery/pdfs.par.60256.file.dat/20130430%20ssbk %20customer %20protocol %20 and %20assa y %20conditions.pdf). The Z′-LYTE biochemical assay (ThermoFisher) employs a fluorescence-based, coupled-enzyme format and is based on the differential sensitivity of phosphorylated and non-phosphorylated peptides to proteolytic cleavage.
Test compounds in 100% DMSO were screened in 1% DMSO (final) in the well. For 10 point titrations, 3-fold serial dilutions are conducted from the starting concentration of 30 μM.
After the 1 hour incubation, 5 μL of a 1:1024 dilution of Development Reagent A (available from Invitrogen, catalog no. PV3295) was added.
ATP solutions were diluted to a 4× working concentration in Kinase Buffer (50 mM HEPES pH 7.5, 0.01% BRIJ-35, 10 mM MgCl2, 1 mM EGTA). ATP Km apparent was previously determined using a Z′-LYTE assay. The Development Reagent was diluted in Development Buffer (available from Invitrogen, catalog no. P3127).
Assay Protocol: 2.5 μL of 4× test compound or 100 nL of 100× Test Compound plus 2.4 μL Kinase Buffer, 5 μL of the 2× Peptide/Kinase Mixture, 2.5 μL of 4×ATP Solution were added to the plates and placed on a shake plate for 30-seconds. The kinase reaction was allowed to proceed for 60-minute at room temperature, before 5 μL of Development Reagent Solution was added, and the mixture agitated for 30-seconds on a shake plate. The mixture was incubated for 60-minute at room temperature. Fluorescence was measured using a plate reader and the data were analyzed.
This control yielded 100% cleaved peptide in the Development Reaction. The 100% Phosphorylation Control, which consisted of a synthetically phosphorylated peptide of the same sequence as the peptide substrate, was designed to allow for the calculation of percent phosphorylation. This control yielded a very low percentage of cleaved peptide in the Development Reaction. The 0% Phosphorylation and 100% Phosphorylation Controls allow for the calculation of the percent phosphorylation achieved in a specific reaction well.
The minimum emission ratio in a screen was established by the 0% Inhibition Control, which contained active kinase. This control was designed to produce a 10-50% phosphorylated peptide in the Kinase Reaction. Cascade assays may produce up to 70% phosphorylated peptide.
A known inhibitor control standard curve, 10 point titration, was run for each individual kinase on the same plate as the kinase to ensure the kinase was inhibited within an expected IC50 range previously determined.
The following controls are prepared for each concentration of Test Compound assayed. […] The expected value for a non-interfering compound should be 100%. Any value outside of 90% to 110% was flagged. […] The expected value for a non-fluorescence compound should be 0%. Any value>20% was flagged.
The data in Table A was calculated. XLfit from IDBS was used. The dose response curve was curve fit to model number 205 (sigmoidal dose-response model).
Table 3 lists the MEK1 inhibition assay results of selected compounds according to the above procedure.

[1] = Assay 4: liver S9 half-life stability assay; format: in vitro ADME; conditions: liver S9 fraction, pH 7.4; human liver S9, 1 μM test compound, NADPH
Procedure: Compounds can be assessed for metabolic stability in human skin by assessing their rate of disappearance from human S9 skin fraction. Similarly, compounds can be assessed for metabolic stability in human liver by assessing their rate of disappearance from human S9 liver fraction. The protocol below is used to assess the difference between skin and hepatic metabolism.
The assay was carried out in 96-well microtiter plates at 37° C. Reaction mixtures (25 μL) contained a final concentration of 1 μM test compound, 2 mg/mL liver or skin protein, and 1 mM NADPH in buffer (100 mM potassium phosphate, pH 7.4 buffer with 1 mM EDTA, 3 mM MgCl2). At each of the time points (0, 15, 30, and 60 minutes), 150 μL, of quench solution (100% acetonitrile with 0.1% formic acid) with internal standard was transferred to each well. […]
All samples were analyzed on LC/MS/MS using an AB Sciex API 4000 instrument, coupled to a Shimadzu LC-20AD LC Pump system. […]
The extent of metabolism was calculated as the disappearance of the test compound, compared to the 0-min control reaction incubations. Initial rates were calculated for the compound concentration and used to determine tin values and subsequently, the intrinsic clearance, CLint=(0.693)(1/t1/2 (min)) (mL incubation/mg of S9 protein). […]

Chain of MEK1 (Q02750 whole entry): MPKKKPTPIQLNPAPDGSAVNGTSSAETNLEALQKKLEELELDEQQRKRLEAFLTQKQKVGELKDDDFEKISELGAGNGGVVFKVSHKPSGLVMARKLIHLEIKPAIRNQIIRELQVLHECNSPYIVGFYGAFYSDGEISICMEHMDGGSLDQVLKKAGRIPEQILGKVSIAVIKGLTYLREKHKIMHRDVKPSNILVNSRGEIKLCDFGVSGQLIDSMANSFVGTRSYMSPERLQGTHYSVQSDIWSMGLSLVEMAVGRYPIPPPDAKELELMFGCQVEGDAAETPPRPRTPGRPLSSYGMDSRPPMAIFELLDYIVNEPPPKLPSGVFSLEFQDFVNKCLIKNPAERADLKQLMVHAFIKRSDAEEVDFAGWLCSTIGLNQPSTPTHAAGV

O=C1CCCc2c1sc(Nc1ccc(I)cc1F)c2C(=O)NOCCO [Compound 1.029, 2-((2-Fluoro-4-iodophenyl)amino)-N-(2-hydroxyethoxy)-7-oxo-4,5,6,7-tetrahydrobenzo[b]thiophene-3-carboxamide]
IC50 (MEK1): ≤ 150 nM
half-life at 1 μM [1]: 0.833 to 1.67 h
